Several values for one entry are separate records, joined by “and”; a condition that tells them apart may be missing. Identical values can stand only once. Entries after “also recorded” stand apart in the source; their conditions may differ. Like-named read-outs stand apart in the source and are kept apart here.
Assay: Portal plasma pharmacokinetics after oral administration in portal vein cannulated, freely moving rats
Format: in vivo, Wistar ST rats
Settings: for AUC: 0→4 h after oral administration, mean ± SEM; for bioavailability: plasma, intact compound, oral versus intravenous administration, read-out: bioavailability for 4 hours
Protocol: SPF Wistar ST rats (6 weeks of age, male, 180 ± 20 g of body weight) were purchased from Japan SLC Inc. (Hamamatsu, Japan). The rats were housed in an air-conditioned room at 22 ± 2°C under cycles of 12 hours dark and 12 hours light and given free access to a commercial diet and water for a week. The rats were then fasted for over 16 hours before the experiments. The present study was approved by the Animal Care and Use Committee at Kagawa University, and the rat treatment conformed to the Rules of Animal Experiments at Kagawa University. After fasting, the rats were cannulated with a polyethylene tube (PE-50; 0.58 mm I.D., 0.965 mm O.D.) into the jugular vein, portal vein, or bile duct under anesthesia with isoflurane inhalation using a WP-SAA01 (LMS Co., Ltd., Tokyo, Japan). A small hole was made in the vein or duct using pointed scissors and cannulated with the polyethylene tube. After inserting the tube, it was fixed at the edge of the vein or duct. The jugular vein and portal vein cannulas penetrated under the skin and were then tied at the back of the rats, and the bile duct cannula was tied at the abdomen of the rats. Bile duct-cannulated rats were then restrained in a Bollman cage (Natsume Seisakusho Co., Ltd., Tokyo, Japan). Before further experiments, the rats were allowed to recover from anesthesia. 3,4-[…] (300 mg/kg body weight; 936.51 μmol/kg) dissolved in 50% polyethylene glycol aqueous solution was administered orally via a stomach tube to the portal vein cannulated rats. Blood samples (450 μL) were then collected using a heparinized syringe attached to the cannula before administration and 5, 15, 30, 60, 120, and 240 min after administration. Urine was also collected before administration and 0 to 2 h and 2 to 4 h after administration. For intravenous administration, 3,4-[…] (10 mg/kg; 31.22 μmol/kg) was injected into the jugular vein, and blood (450 μL) was collected using a heparinized syringe before administration and 5, 15, 30, 60, 120, and 240 min after administration via the jugular vein cannula. The blood (450 μL) collected was immediately cooled on ice and centrifuged at 15,000 rpm for 5 min at 4°C to obtain over 200 μL plasma. Urine was also collected before administration and 0 to 2 h and 2 to 4 h after administration. Bile was collected via the bile duct cannula before administration and 0 to 2 h and 2 to 4 h after intravenous administration. The collected plasma, urine, and bile were immediately stored in an ice box until further analyses. HT (oral administration: 100 mg/kg; 648.66 μmol/kg, intravenous administration: 10 mg/kg; 64.87 μmol/kg) and Ole (oral administration: 300 mg/kg; 555.02 μmol/kg, intravenous administration: 10 mg/kg; 18.50 μmol/kg) were investigated using the same method as described above. Metabolites were deconjugated by using β-glucuronidase (500 U) and sulfatase (50 U) in 50 μL 625 mM MOPS (pH 6.8), which was added to 200 μL of plasma, urine, or bile. The mixture was incubated for 45 min at 37°C and subjected to extraction using QuEChERS [33]. […] Shimadzu, Kyoto, Japan) equipped with a Shim-pack XR-ODS column (3.0 mm I.D. × 100 mm; Shimadzu, Kyoto, Japan) at 40°C with a mobile phase of 0.5% TFA-1% acetonitrile aqueous solution (A) and 0.5% TFA-75% acetonitrile aqueous solution (B). The elution conditions are described as follows: isocratic elution of 0% B was maintained for 4.0 min; linear gradient 0 to 4% B, 4.0-4.5 min; linear gradient 4.0-16.0% B, 4.5-16.0 min; linear gradient 16.0-100% B, 16.0-25.0 min; isocratic elution of 100% B, 25.0-26.0 min; and linear gradient 100 to 0% B, 26.0-26.1 min, with a flow rate of 0.5 mL/min. Injection volume was 50 μL. All eluted peaks were detected at 279 nm with a diode array detector (SPD-M20A; Shimadzu, Kyoto, Japan). The absorption of 3,4-[…], and Ole was evaluated by dose-normalized 4 h area under the curve (AUC0→4 h/Dose) and C max/Dose values (Table 2). […]

[1] = analyte HT in portal plasma after oral administration
[2] = analyte HVA in portal plasma after oral administration
[3] = analyte HVAOH in portal plasma after oral administration
[4] = analyte HT in portal plasma after oral administration, listed as HT
[5] = male, Wistar ST, rat, portal vein plasma, 100 mg/kg, analyte HT in portal plasma after oral administration
[6] = analyte Ole in portal plasma after oral administration
[7] = male, Wistar ST, rat, 300 mg/kg, analyte Ole in portal plasma after oral administration

CC=C(C=O)C(CC=O)CC(=O)OCCc1ccc(O)c(O)c1 (stereo not drawn) [3,4-DHPEA-EDA, 3,4-dihydroxyphenylethyl elenolate dialdehydic form]
AUC/Dose (AUC0→4 h-i.g./Dosei.g.) (Total of detected analytes in portal plasma after oral administration): 36.4 μM·min·kg/μmol and 36.4 ± 5.9 μM·min·kg/μmol | AUC (Total of detected analytes in portal plasma): 34049.5 ± 5539.3 µM·min | Detection of parent 3,4-DHPEA-EDA in portal plasma (after oral administration, 300 mg/kg, 936.51 μmol/kg, 300 mg/kg): not observed; also recorded: not detected; also recorded: could not detect | AUC/Dose (AUC0→4 h-i.g./Dosei.g.) [1]: 27.7 μM·min·kg/μmol and 27.7 ± 3.3 μM·min·kg/μmol | C max/Dose [1]: 0.22 μM·kg/μmol | Cmax [1]: 179 ± 45.3 µM | T max [1]: 30 min | AUC (analyte HT in portal plasma, triplicate): 25935.0 ± 3103.1 µM·min | AUC/Dose (AUC0→4 h-i.g./Dosei.g.) [2]: 4.5 μM·min·kg/μmol and 4.5 ± 1.8 μM·min·kg/μmol | C max/Dose [2]: 0.03 μM·kg/μmol and 0.03 ± 0.007 μM·kg/μmol | Cmax [2]: 21.5 ± 6.9 µM | T max [2]: 60 min | AUC (analyte HVA in portal plasma, triplicate): 4180.0 ± 1646.5 µM·min | AUC/Dose (AUC0→4 h-i.g./Dosei.g.) [3]: 4.2 μM·min·kg/μmol and 4.2 ± 0.8 μM·min·kg/μmol | C max/Dose [3]: 0.03 μM·kg/μmol and 0.03 ± 0.002 μM·kg/μmol | Cmax [3]: 22.2 ± 2 µM | T max [3]: 30 min | AUC (analyte HVAOH in portal plasma, triplicate): 3934.5 ± 789.7 µM·min | total absorption rate, times less than that of HT (total AUC0→4 h-i.g./Dosei.g. including metabolites): 2.2 times | ratio of AUC/Dose of 3,4-DHPEA-EDA : HT : Ole (total including metabolites in portal plasma after oral administration, Ole = 1): 13.5

OCCc1ccc(O)c(O)c1 [Hydroxytyrosol, 2-(3,4-dihydroxyphenyl) ethyl alcohol, reference compound]
AUC/Dose (AUC0→4 h-i.g./Dosei.g.) [1]: 51.1 ± 8.5 μM·min·kg/μmol | C max/Dose [1]: 0.61 ± 0.089 μM·kg/μmol | AUC/Dose (AUC0→4 h-i.g./Dosei.g.) [4]: 51.1 μM·min·kg/μmol | C max/Dose [4]: 0.61 μM·kg/μmol | AUC/Dose (AUC0→4 h-i.g./Dosei.g.) (analyte HT in portal plasma after oral administration, listed as hydroxytyrosol): 51.1 μM·min·kg/μmol | bioavailability (male, Wistar ST, rat): 13.1% | Cmax [5]: 395 ± 58 µM | Tmax [5]: 15 min | AUC (male, Wistar ST, rat, portal vein plasma, 100 mg/kg, analyte HT in portal plasma, triplicate, read-out: AUC (converted)): 33200 µM·min

C/C=C1/[C@H](O[C@@H]2O[C@H](CO)[C@@H](O)[C@H](O)[C@H]2O)OC=C(C(=O)OC)[C@H]1CC(=O)OCCc1ccc(O)c(O)c1 [Oleuropein, reference compound]
AUC/Dose (AUC0→4 h-i.g./Dosei.g.) [6]: 1.8 ± 0.4 μM·min·kg/μmol | C max/Dose [6]: 0.021 ± 0.006 μM·kg/μmol | AUC/Dose (AUC0→4 h-i.g./Dosei.g.) (analyte Ole in portal plasma after oral administration, listed as Ole): 1.8 μM·min·kg/μmol | Cmax [7]: 11.9 ± 3.2 µM | Tmax [7]: 5 min | AUC (male, Wistar ST, rat, 300 mg/kg, analyte Ole in portal plasma, triplicate, read-out: AUC (converted)): 1020 µM·min | bioavailability (male, Wistar ST, rat): 0.5%

From article PMC4745926, “Absorption, Metabolism, and Excretion by Freely Moving Rats of 3,4-DHPEA-EDA and Related Polyphenols from Olive Fruits (Olea europaea)” (Journal of Nutrition and Metabolism, 2016)
